This assay has as its system KMS.12.BM cells. The assay can be described thus: KMS.12.BM Cell Viability Assay (Example B1). It counts as cell-based, human. The following applies: 3 days, Cell Titer-GLO, read-out: KMS cellular IC50. A digest of the protocol:
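KMS.12.BM human myeloma cells, 5000 cells/well in RPMI with 10% FBS, exposed to a compound concentration range for 3 days. Viable cells measured by ATP-based Cell Titer-GLO luminescence after 10 min at room temperature.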
(In general: In ATP-based viability assays light output follows the ATP content of the culture.)

Each structure is given as a SMILES string. Like-named read-outs stand apart in the source and are kept apart here. Bounds are passed on as bounds.

In the case of `Cc1noc(C)c1-c1ccc2[nH]c(=S)n3c2c1OCC3c1ccccn1` (stereo not drawn) [Example 255, 7-(3,5-Dimethylisoxazol-4-yl)-4-pyridin-2-yl-4,5-dihydroimidazo[1,5,4-de][1,4]benzoxazine-2(1H)-thione], for the setting “Homo sapiens, 72 h”, the IC50 was below 1 µM.
The same measure, in the same setting: the figure for `Cc1noc(C)c1-c1ccc2nc(N3CCC[C@H](O)C3)n3c2c1OC[C@@H]3c1ccccn1` [Example 170B, (3S)-1-[(4S)-7-(3,5-dimethylisoxazol-4-yl)-4-pyridin-2-yl-4,5-dihydroimidazo[1,5,4-de][1,4]benzoxazin-2-yl]piperidin-3-ol] is below 1 µM; for `Cc1noc(C)c1-c1ccc2nc(N3CCC(CO)CC3)n3c2c1OC[C@@H]3c1ccccn1` [Example 176, {1-[(4S)-7-(3,5-dimethylisoxazol-4-yl)-4-pyridin-2-yl-4,5-dihydroimidazo[1,5,4-de][1,4]benzoxazin-2-yl]piperidin-4-yl}methanol] it is below 1 µM; for `Cc1noc(C)c1-c1ccc2[nH]c(=O)n3c2c1OCC3c1ccc(F)cc1` (stereo not drawn) [Example 49, 7-(3,5-Dimethylisoxazol-4-yl)-4-(4-fluorophenyl)-4,5-dihydroimidazo[1,5,4-de][1,4]benzoxazin-2(1H)-one] it is below 1 µM.
Still for that read-out and setting: the figure for `Cc1noc(C)c1-c1ccc2nc(N3CCCC3)n3c2c1OC[C@@H]3c1ccccn1` [Example 162, (4S)-7-(3,5-dimethylisoxazol-4-yl)-4-pyridin-2-yl-2-pyrrolidin-1-yl-4,5-dihydroimidazo[1,5,4-de][1,4]benzoxazine] is below 1 µM.
As to `Cc1noc(C)c1-c1ccc2[nH]c(=O)n3c2c1OCC3c1cccnc1C#N` (racemic) [Example 126, 3-[7-(3,5-Dimethylisoxazol-4-yl)-2-oxo-1,2,4,5-tetrahydroimidazo[1,5,4-de][1,4]benzoxazin-4-yl]pyridine-2-carbonitrile], for the setting “Homo sapiens, KMS-12-BM, 72 h”, the IC50 is below 1 µM.
For `COc1cccc(C2COc3c(-c4c(C)noc4C)ccc4[nH]c(=O)n2c34)c1` (stereo not drawn) [Example 6, 7-(3,5-Dimethylisoxazol-4-yl)-4-(3-methoxyphenyl)-4,5-dihydroimidazo[1,5,4-de][1,4]benzoxazin-2(1H)-one], the IC50 (Homo sapiens, 72 h) is below 1 µM.
Still for that read-out and setting: the figure for `Cc1noc(C)c1-c1ccc2ncn3c2c1OC[C@@H]3c1ccccn1` [Example 92, (4S)-7-(3,5-Dimethylisoxazol-4-yl)-4-pyridin-2-yl-4,5-dihydroimidazo[1,5,4-de][1,4]benzoxazine] is below 1 µM; for `CCC(=O)NC1CCN(c2nc3ccc(-c4c(C)noc4C)c4c3n2[C@@H](c2ccccn2)CO4)CC1` [Example 243, N-{1-[(4S)-7-(3,5-dimethylisoxazol-4-yl)-4-pyridin-2-yl-4,5-dihydroimidazo[1,5,4-de][1,4]benzoxazin-2-yl]piperidin-4-yl}propanamide] it is below 1 µM.
As for `Cc1noc(C)c1-c1ccc2[nH]c(=O)n3c2c1OC(C(=O)N(C)C)C3c1ccccc1` (single isomer, unassigned) [Example 47B, 7-(3,5-Dimethylisoxazol-4-yl)-N,N-dimethyl-2-oxo-4-phenyl-1,2,4,5-tetrahydroimidazo[1,5,4-de][1,4]benzoxazine-5-carboxamide], the 50% inhibitory concentration (IC50) (Homo sapiens, KMS-12-BM, 72 h) is 1 to 10 µM.
`CCOC(=O)N1CCN(c2nc3ccc(-c4c(C)noc4C)c4c3n2[C@@H](c2ccccn2)CO4)CC1` [Example 167, ethyl 4-[(4S)-7-(3,5-dimethylisoxazol-4-yl)-4-pyridin-2-yl-4,5-dihydroimidazo[1,5,4-de][1,4]benzoxazin-2-yl]piperazine-1-carboxylate]: the IC50 (Homo sapiens, 72 h) is below 1 µM.
The same measure, in the same setting: the figure for `Cc1noc(C)c1-c1ccc2[nH]c(=O)n3c2c1OC(C(=O)NCCO)C3c1ccccc1` (single isomer, unassigned) [Example 48B, 7-(3,5-Dimethylisoxazol-4-yl)-N-(2-hydroxyethyl)-2-oxo-4-phenyl-1,2,4,5-tetrahydroimidazo[1,5,4-de][1,4]benzoxazine-5-carboxamide] is 1 to 10 µM; for `Cc1noc(C)c1-c1ccc2nc(N3CCCN(S(C)(=O)=O)CC3)n3c2c1OC[C@@H]3c1ccccn1` [Example 149, (4S)-7-(3,5-Dimethylisoxazol-4-yl)-2-[4-(methylsulfonyl)-1,4-diazepan-1-yl]-4-pyridin-2-yl-4,5-dihydroimidazo[1,5,4-de][1,4]benzoxazine] it is below 1 µM.
Still for that read-out and setting: the figure for `Cc1noc(C)c1-c1cc(C#N)c2[nH]c(=O)n3c2c1OCC3c1ccccc1` (stereo not drawn) [Example 42, 7-(3,5-Dimethylisoxazol-4-yl)-2-oxo-4-phenyl-1,2,4,5-tetrahydroimidazo[1,5,4-de][1,4]benzoxazine-9-carbonitrile] is below 1 µM.
Regarding `Cc1noc(C)c1-c1ccc2nc(N3CCN(CCO)CC3)n3c2c1OC[C@@H]3c1ccccn1` [Example 177, 2-{4-[(4S)-7-(3,5-dimethylisoxazol-4-yl)-4-pyridin-2-yl-4,5-dihydroimidazo[1,5,4-de][1,4]benzoxazin-2-yl]piperazin-1-yl}ethanol], for the setting “Homo sapiens, 72 h”, the IC50 was below 1 µM.
The same measure, in the same setting: the figure for `Cc1noc(C)c1-c1ccc2nc(N3CCC[C@@H](O)C3)n3c2c1OC[C@@H]3c1ccccn1` [Example 170A, (3R)-1-[(4S)-7-(3,5-dimethylisoxazol-4-yl)-4-pyridin-2-yl-4,5-dihydroimidazo[1,5,4-de][1,4]benzoxazin-2-yl]piperidin-3-ol] is below 1 µM; for `Cc1noc(C)c1-c1ccc2nc(N3CC[C@@H](NS(=O)(=O)C4CC4)C3)n3c2c1OC[C@@H]3c1ccccn1` [Example 218, N-{(3R)-1-[(4S)-7-(3,5-dimethylisoxazol-4-yl)-4-pyridin-2-yl-4,5-dihydroimidazo[1,5,4-de][1,4]benzoxazin-2-yl]pyrrolidin-3-yl}cyclopropanesulfonamide] it is below 1 µM.
In the case of `Cc1noc(C)c1-c1ccc2nc(C(=O)OC(C)(C)C)n3c2c1OC[C@@H]3c1ccccn1` [Example 93, tert-Butyl (4S)-7-(3,5-dimethylisoxazol-4-yl)-4-pyridin-2-yl-4,5-dihydroimidazo[1,5,4-de][1,4]benzoxazine-2-carboxylate], where the note is “Homo sapiens, 72 h”, the 50% inhibitory concentration (IC50) is below 1 µM.
Same read-out and setting: the figure for `C=Cc1nc2ccc(-c3c(C)noc3C)c3c2n1[C@@H](c1ccccn1)CO3` [Example 88, (4S)-7-(3,5-Dimethylisoxazol-4-yl)-4-pyridin-2-yl-2-vinyl-4,5-dihydroimidazo[1,5,4-de][1,4]benzoxazine] is below 1 µM.
With `CCS(=O)(=O)N1CCN(c2nc3ccc(-c4c(C)noc4C)c4c3n2[C@@H](c2ccccn2)CO4)CC1` [Example 226, (4S)-7-(3,5-dimethylisoxazol-4-yl)-2-[4-(ethylsulfonyl)piperazin-1-yl]-4-pyridin-2-yl-4,5-dihydroimidazo[1,5,4-de][1,4]benzoxazine], where the note is “Homo sapiens, 72 h”, the IC50 was below 1 µM.
In the case of `CNC(=O)[C@@H]1CCN(c2nc3ccc(-c4c(C)noc4C)c4c3n2[C@@H](c2ccccn2)CO4)C1` [Example 249, (3R)-1-[(4S)-7-(3,5-dimethylisoxazol-4-yl)-4-pyridin-2-yl-4,5-dihydroimidazo[1,5,4-de][1,4]benzoxazin-2-yl]-N-methylpyrrolidine-3-carboxamide], under “Homo sapiens, 72 h”, the IC50 is below 1 µM.
On the same count and under the same terms, in the case of `CCOC(=O)C1Oc2c(-c3c(C)noc3C)ccc3[nH]c(=O)n(c23)C1c1ccccc1` (stereo not drawn) [Example 23, Ethyl 7-(3,5-dimethylisoxazol-4-yl)-2-oxo-4-phenyl-1,2,4,5-tetrahydroimidazo[1,5,4-de][1,4]benzoxazine-5-carboxylate] it was below 1 µM; in that of `Cc1noc(C)c1-c1ccc2nc(N3CC[C@@H](NC(=O)C4CC4)C3)n3c2c1OC[C@@H]3c1ccccn1` [Example 206, N-{(3R)-1-[(4S)-7-(3,5-dimethylisoxazol-4-yl)-4-pyridin-2-yl-4,5-dihydroimidazo[1,5,4-de][1,4]benzoxazin-2-yl]pyrrolidin-3-yl}cyclopropanecarboxamide], below 1 µM; in that of `Cc1noc(C)c1-c1ccc2nc(C)n3c2c1OC[C@@H]3c1ccccn1` [Example 154, 7-(3,5-Dimethylisoxazol-4-yl)-2-methyl-4-pyridin-2-yl-4,5-dihydroimidazo[1,5,4-de][1,4]benzoxazine], below 1 µM.
With `Cc1noc(C)c1-c1cc(C(C)O)c2[nH]c(=O)n3c2c1OC[C@@H]3c1ccccn1` (single isomer, unassigned) [Example 144B], the IC50 is below 1 µM.
On to `Cc1noc(C)c1-c1ccc2nc(N3CCN(S(N)(=O)=O)CC3)n3c2c1OC[C@@H]3c1ccccn1` [Example 229, 4-[(4S)-7-(3,5-dimethylisoxazol-4-yl)-4-pyridin-2-yl-4,5-dihydroimidazo[1,5,4-de][1,4]benzoxazin-2-yl]piperazine-1-sulfonamide], for which the IC50 (Homo sapiens, 72 h) is below 1 µM.
Still for that read-out and setting: the figure for `Cc1noc(C)c1-c1ccc2nc(N3CCCN(S(N)(=O)=O)CC3)n3c2c1OC[C@@H]3c1ccccn1` [Example 147, 4-[(4S)-7-(3,5-Dimethylisoxazol-4-yl)-4-pyridin-2-yl-4,5-dihydroimidazo[1,5,4-de][1,4]benzoxazin-2-yl]-1,4-diazepane-1-sulfonamide] is below 1 µM; for `Cc1noc(C)c1-c1ccc2nc(N3CCN4CCC[C@H]4C3)n3c2c1OC[C@@H]3c1ccccn1` [Example 193A, (4S)-7-(3,5-dimethylisoxazol-4-yl)-2-[(8aS)-hexahydropyrrolo[1,2-a]pyrazin-2(1H)-yl]-4-pyridin-2-yl-4,5-dihydroimidazo[1,5,4-de][1,4]benzoxazine] it is below 1 µM; for `Cc1noc(C)c1-c1ccc2nc(N3CCN(C)C(=O)C3)n3c2c1OC[C@@H]3c1ccccn1` [Example 166, 4-[(4S)-7-(3,5-dimethylisoxazol-4-yl)-4-pyridin-2-yl-4,5-dihydroimidazo[1,5,4-de][1,4]benzoxazin-2-yl]-1-methylpiperazin-2-one] it is below 1 µM.
`CCOC(=O)C1Oc2c(-c3c(C)noc3C)ccc3[nH]c(=O)n(c23)C1c1ccccn1` (stereo not drawn) [Example 20, Ethyl 7-(3,5-dimethylisoxazol-4-yl)-2-oxo-4-pyridin-2-yl-1,2,4,5-tetrahydroimidazo[1,5,4-de][1,4]benzoxazine-5-carboxylate]: under “Homo sapiens, KMS-12-BM, 72 h”, the concentration for half-maximal inhibition (IC50) is below 1 µM.

The IC50 is the concentration that inhibits the measured activity by half.
